Target: T1, NaV 1.7 (Homo sapiens, UniProt Q15858)
T1 construct: expressed in transfected cells; host or cells: HEK cells
Experiment: E-VIPR optical membrane potential assay with electrical stimulation
Format: cell-based
Settings: active against one or more sodium channels; assay/subtype not specified in Table 4; read-out: IC50 Binned Activity Data
Excerpt: E-VIPR Optical Membrane Potential Assay Method with Electrical Stimulation
Sodium channels are voltage-dependent proteins that can be activated by inducing membrane voltage changes by applying electric fields. The electrical stimulation instrument and methods of use are described in Ion Channel Assay Methods PCT/US01/21652, herein incorporated by reference and are referred to as E-VIPR. The instrument comprises a microtiter plate handler, an optical system for exciting the coumarin dye while simultaneously recording the coumarin and oxonol emissions, a waveform generator, a current- or voltage-controlled amplifier, and a device for inserting electrodes in well. Under integrated computer control, this instrument passes user-programmed electrical stimulus protocols to cells within the wells of the microtiter plate.
24 hours before the assay on E-VIPR, HEK cells expressing human NaV subtype, like NaV 1.7, are seeded in 384-well poly-lysine coated plates at 15,000-20,000 cells per well. Other subtypes are performed in an analogous mode in a cell line expressing the NaV of interest. HEK cells are grown in media (exact composition is specific to each cell type and NaV subtype) supplemented with 10% FBS (Fetal Bovine Serum, qualified; GibcoBRL #16140-071) and 1% Pen-Strep (Penicillin-Streptomycin; GibcoBRL #15140-122). Cells are grown in vented cap flasks, in 90% humidity and 10% CO2, to 100% confluence. They are usually split by trypsinization 1:10 or 1:20, depending on scheduling needs, and grown for 2-3 days before the next split.
• 100 mg/mL Pluronic F-127 (Sigma #P2443), in dry DMSO • Compound Plates: 384-well round bottom plate, e.g. Corning 384-well Polypropylene Round Bottom #3656 • Cell Plates: 384-well tissue culture treated plate, e.g. Greiner #781091-1B • 10 mM DiSBAC6(3) (Aurora #00-100-010) in dry DMSO • 10 mM CC2-DMPE (Aurora #00-100-008) in dry DMSO • 200 mM ABSC1 in H2O
Bath1 buffer. Glucose 10 mM (1.8 g/L), Magnesium Chloride (Anhydrous), 1 mM (0.095 g/L), Calcium Chloride, 2 mM (0.222 g/L), HEPES 10 mM (2.38 g/L), Potassium Chloride, 4.5 mM (0.335 g/L), Sodium Chloride 160 mM (9.35 g/L).
Hexyl Dye Solution: Bath1 Buffer+0.5% β-cyclodextrin (make this prior to use, Sigma #C4767), 8 μM CC2-DMPE+2.5 μM DiSBAC6(3). To make the solution Add volume of 10% Pluronic F127 stock equal to volumes of CC2-DMPE+DiSBAC6(3). The order of preparation is first mix Pluronic and CC2-DMPE, then add DiSBAC6(3) while vortexing, then add Bath1+β-Cyclodextrin.
1) Pre-spot compounds (in neat DMSO) into compound plates. Vehicle control (neat DMSO), the positive control (20 mM DMSO stock tetracaine, 125 μM final in assay) and test compounds are added to each well at 160× desired final concentration in neat DMSO. Final compound plate volume will be 80 μL (80-fold intermediate dilution from 1 μL DMSO spot; 160-fold final dilution after transfer to cell plate). Final DMSO concentration for all wells in assay is 0.625%.
2) Prepare Hexyl Dye Solution.
3) Prepare cell plates. On the day of the assay, medium is aspirated and cells are washed three times with 100 μL of Bath1 Solution, maintaining 25 μL residual volume in each well.
4) Dispense 25 μL per well of Hexyl Dye Solution into cell plates. Incubate for 20-35 minutes at room temp or ambient conditions.
5) Dispense 80 μL per well of Bath1 into compound plates. Acid Yellow-17 (1 mM) is added and Potassium Chloride can be altered from 4.5 to 20 mM depending on the NaV subtype and assay sensitivity.
6) Wash cell plates three times with 100 μL per well of Bath1, leaving 25 μL of residual volume. Then transfer 25 uL per well from Compound Plates to Cell Plates. Incubate for 20-35 minutes at room temp/ambient condition
7) Read Plate on E-VIPR. Use the current-controlled amplifier to deliver stimulation wave pulses for typically 9 seconds and a scan rate of 400 Hz. A pre-stimulus recording is performed for 0.5 seconds to obtain the un-stimulated intensities baseline. […]

T1 sequence (Q15858 whole entry): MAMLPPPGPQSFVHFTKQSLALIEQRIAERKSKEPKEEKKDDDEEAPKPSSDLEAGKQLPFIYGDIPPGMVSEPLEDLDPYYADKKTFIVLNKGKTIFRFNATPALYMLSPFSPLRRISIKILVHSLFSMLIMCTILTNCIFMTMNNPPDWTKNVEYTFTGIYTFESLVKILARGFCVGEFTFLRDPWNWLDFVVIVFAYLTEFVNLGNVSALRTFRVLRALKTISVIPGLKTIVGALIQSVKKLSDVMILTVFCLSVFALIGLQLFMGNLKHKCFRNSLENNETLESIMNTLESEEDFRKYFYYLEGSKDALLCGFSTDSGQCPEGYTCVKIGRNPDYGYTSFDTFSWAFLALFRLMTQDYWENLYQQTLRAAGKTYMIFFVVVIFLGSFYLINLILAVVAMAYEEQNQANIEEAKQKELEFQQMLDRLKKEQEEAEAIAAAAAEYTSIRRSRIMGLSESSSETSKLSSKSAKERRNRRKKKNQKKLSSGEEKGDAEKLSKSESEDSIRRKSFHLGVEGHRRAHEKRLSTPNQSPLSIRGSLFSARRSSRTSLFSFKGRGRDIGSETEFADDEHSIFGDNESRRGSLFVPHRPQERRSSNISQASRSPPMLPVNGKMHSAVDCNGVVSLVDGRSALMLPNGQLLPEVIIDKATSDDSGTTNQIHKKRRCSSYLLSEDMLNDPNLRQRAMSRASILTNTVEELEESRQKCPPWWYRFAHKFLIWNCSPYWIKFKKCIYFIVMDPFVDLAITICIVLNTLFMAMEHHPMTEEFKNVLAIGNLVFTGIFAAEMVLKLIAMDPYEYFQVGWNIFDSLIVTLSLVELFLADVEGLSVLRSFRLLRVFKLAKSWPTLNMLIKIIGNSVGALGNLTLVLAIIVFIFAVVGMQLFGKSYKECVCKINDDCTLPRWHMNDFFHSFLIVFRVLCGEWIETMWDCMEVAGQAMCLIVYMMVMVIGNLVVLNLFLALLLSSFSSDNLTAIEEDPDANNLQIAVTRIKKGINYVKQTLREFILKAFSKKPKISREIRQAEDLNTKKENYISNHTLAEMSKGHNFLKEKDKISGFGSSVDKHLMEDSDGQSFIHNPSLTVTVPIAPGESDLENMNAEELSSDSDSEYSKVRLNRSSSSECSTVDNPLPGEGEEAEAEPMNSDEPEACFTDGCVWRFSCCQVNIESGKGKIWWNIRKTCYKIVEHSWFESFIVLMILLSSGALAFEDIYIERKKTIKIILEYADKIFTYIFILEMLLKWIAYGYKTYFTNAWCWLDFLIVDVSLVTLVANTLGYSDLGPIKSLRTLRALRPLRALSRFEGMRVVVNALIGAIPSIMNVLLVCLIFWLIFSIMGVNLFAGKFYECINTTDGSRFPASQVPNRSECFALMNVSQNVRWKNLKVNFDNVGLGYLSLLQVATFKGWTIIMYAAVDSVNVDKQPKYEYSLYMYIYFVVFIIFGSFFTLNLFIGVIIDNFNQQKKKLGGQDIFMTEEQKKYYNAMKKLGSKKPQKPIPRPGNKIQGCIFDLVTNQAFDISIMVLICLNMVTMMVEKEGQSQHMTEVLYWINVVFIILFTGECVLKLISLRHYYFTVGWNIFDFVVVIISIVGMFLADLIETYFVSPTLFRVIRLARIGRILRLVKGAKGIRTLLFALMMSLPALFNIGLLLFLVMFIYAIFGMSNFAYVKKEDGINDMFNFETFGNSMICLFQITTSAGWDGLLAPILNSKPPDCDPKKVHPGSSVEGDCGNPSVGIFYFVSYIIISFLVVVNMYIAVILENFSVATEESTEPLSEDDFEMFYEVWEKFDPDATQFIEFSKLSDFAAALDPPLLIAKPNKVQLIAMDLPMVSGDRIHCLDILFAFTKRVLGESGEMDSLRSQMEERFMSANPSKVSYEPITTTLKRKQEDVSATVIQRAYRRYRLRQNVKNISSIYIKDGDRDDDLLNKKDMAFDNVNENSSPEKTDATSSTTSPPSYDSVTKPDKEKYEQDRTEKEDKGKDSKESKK

Row | Compound | IC50 [nM]
1 | COc1cc(C(=O)N2CC[C@]3(c4ncccc4F)OCOC3C2)ccc1OCC1CC(F)(F)C1 (stereo partly drawn) [Compound 1] | ≤ 2000
2 | COc1ccnc([C@]23CCN(C(=O)c4ccc(OCC(F)(F)C(F)F)c(OC)c4)CC2OCO3)c1 (stereo partly drawn) [Compound 3] | ≤ 2000
3 | Cc1cc(C(=O)N2CC[C@]3(c4ncccn4)OCOC3C2)ccc1OC(C)C (stereo partly drawn) [Compound 5] | > 5000
4 | COc1cc(C(=O)N2CC[C@]3(c4ncccn4)OCOC3C2)ccc1OCC(C)(C)F (stereo partly drawn) [Compound 7] | > 5000
5 | COc1cc(C(=O)N2CC[C@@]3(c4ccccc4)OCOC3C2)ccc1OCC(C)(C)O (stereo partly drawn) [Compound 8] | > 5000
6 | CC(C)Oc1ccc(C(=O)N2CCC3(c4ccccc4)CC3C2)cn1 (stereo not drawn) [Compound 10] | > 5000
7 | COc1c(F)cccc1C(=O)N1CCC2(c3ccccc3)CC2C1 (stereo not drawn) [Compound 11] | > 5000
8 | COc1cc(C(=O)N2CC[C@]3(c4ncccn4)OCOC3C2)ccc1OCCOC(F)(F)F (stereo partly drawn) [Compound 12] | > 5000
9 | Cc1cc(C(=O)N2CCC3(c4ccccc4)OCC3C2)ccc1OC(C)C (stereo not drawn) [Compound 13] | > 5000
10 | CC(C)Oc1ccc(C(=O)N2CCC3(c4ccccc4)CC3C2)cc1F (stereo not drawn) [Compound 16] | 2000 to 5000
11 | CC(C)(O)COc1ccc(C(=O)N2CC[C@]3(c4nccs4)OCOC3C2)cc1Cl (stereo partly drawn) [Compound 22] | 2000 to 5000
12 | COc1cc(C(=O)N2CC[C@]3(c4nccs4)OCOC3C2)ccc1OCC(C)(C)F (stereo partly drawn) [Compound 24] | 2000 to 5000
13 | CC(C)(O)c1ccc(C(=O)N2CCC3(c4ccccc4)CC3C2)cc1 (stereo not drawn) [Compound 29] | ≤ 2000
14 | Cc1cc(C(=O)N2CC[C@]3(c4nccs4)OCOC3C2)ccc1OCC(C)(C)O (stereo partly drawn) [Compound 31] | ≤ 2000
15 | O=C(c1cccc2cccnc12)N1CCC2(c3ccccc3)OCC2C1 (stereo not drawn) [Compound 33] | ≤ 2000
16 | CC(C)Oc1ccc(C(=O)N2CCC3(c4ccccc4)CC3C2)cc1C#N (stereo not drawn) [Compound 35] | ≤ 2000
17 | COc1cc(C(=O)N2CC[C@@]3(c4ccccc4)OCOC3C2)ccc1OCC(C)(C)F (stereo partly drawn) [Compound 36] | ≤ 2000
18 | COc1cc(C(=O)N2CC[C@]3(c4ccc(F)cc4)OCOC3C2)ccc1OCC(C)(C)F (stereo partly drawn) [Compound 38] | ≤ 2000
19 | COc1cc(C(=O)N2CC[C@]3(c4cscn4)OCOC3C2)ccc1OCCOC(F)(F)F (stereo partly drawn) [Compound 39] | > 5000
20 | COc1cc(C(=O)N2CC[C@]3(c4ccccn4)OCOC3C2)cc(F)c1OCCC(F)(F)F (stereo partly drawn) [Compound 40] | ≤ 2000
21 | O=C(c1cccc2cccnc12)N1CC[C@@]2(c3ccccc3)OCOC2C1 (stereo partly drawn) [Compound 43] | 2000 to 5000
22 | Cc1cc(C(=O)N2CC[C@]3(c4ccccc4)OCOC3C2)ccc1C(C)(C)O (stereo partly drawn) [Compound 45] | ≤ 2000
23 | COc1cc(C(=O)N2CC[C@@]3(c4ccn(C)n4)OCOC3C2)ccc1OCCOC(F)(F)F (stereo partly drawn) [Compound 46] | ≤ 2000
24 | COc1cc(C(=O)N2CC[C@@]3(c4ccc(F)cc4)OCOC3C2)ccc1OCC(C)(C)F (stereo partly drawn) [Compound 47] | ≤ 2000
25 | Cc1cc(C(=O)N2CC[C@@]3(c4ccccc4)OCOC3C2)ccc1C(C)(C)O (stereo partly drawn) [Compound 49] | > 5000
26 | COc1cc(C(=O)N2CC[C@]3(c4ccccn4)OCOC3C2)ccc1COCC(F)(F)F (stereo partly drawn) [Compound 50] | ≤ 2000
27 | Cc1cc(C(=O)N2CC[C@]3(c4cscn4)OCOC3C2)ccc1OCC(C)(C)F (stereo partly drawn) [Compound 52] | 2000 to 5000
28 | Cc1cc(C(=O)N2CC[C@]3(c4ccc(F)cc4)OCOC3C2)ccc1OCC(C)(C)O (stereo partly drawn) [Compound 53] | ≤ 2000
29 | O=C(c1ccc2c(c1)OCC(COC(F)(F)F)O2)N1CC[C@@]2(c3ccccc3)OCOC2C1 (stereo partly drawn) [Compound 54] | ≤ 2000
30 | Cc1nc(C(=O)N2CCC3(c4ccccc4)OCC3C2)ccc1OC(C)C (stereo not drawn) [Compound 56] | ≤ 2000

The remaining lines, values ahead:

Row | IC50 [nM] | Compound
31 | ≤ 2000 | Cc1cc(C(=O)N2CC[C@]3(c4cc(C(F)(F)F)ccn4)OCOC3C2)ccc1OCC(C)(C)F (stereo partly drawn) [Compound 2]
32 | ≤ 2000 | COc1cc(C(=O)N2CC[C@]3(c4cc(F)cc(F)c4)OCOC3C2)ccc1OCCOC(F)(F)F (stereo partly drawn) [Compound 4]
33 | > 5000 | COc1cc(C(=O)N2CC[C@@]3(c4nccs4)OCOC3C2)ccc1OCC(C)(C)F (stereo partly drawn) [Compound 6]
34 | > 5000 | O=C(c1ccc(O)c(Cl)c1)N1CC[C@]2(c3ccccn3)OCOC2C1 (stereo partly drawn) [Compound 9]
35 | 2000 to 5000 | COc1ccc(C(=O)N2CCC3(c4ccccc4)CC3C2)nc1C (stereo not drawn) [Compound 14]
36 | 2000 to 5000 | CCS(=O)(=O)c1ccc(C(=O)N2CCC3(c4ccccc4)CC3C2)cc1C (stereo not drawn) [Compound 15]
37 | 2000 to 5000 | CC(C)(O)COc1ccc(C(=O)N2CC[C@@]3(c4nccs4)OCOC3C2)cc1Cl (stereo partly drawn) [Compound 17]
38 | 2000 to 5000 | Cc1cc(C(=O)N2CCC3(c4ccccc4)CC3C2)cnc1OC(C)C (stereo not drawn) [Compound 18]
39 | 2000 to 5000 | CC(C)Oc1ccc(C(=O)N2CCC3(c4ccccc4)CC3C2)c(F)c1 (stereo not drawn) [Compound 19]
40 | 2000 to 5000 | O=C(c1cccc2c1OCC2)N1CCC2(c3ccccc3)CC2C1 (stereo not drawn) [Compound 20]
41 | 2000 to 5000 | CC(C)COc1ccc(C(=O)N2CCC3(c4ccccc4)CC3C2)nc1 (stereo not drawn) [Compound 21]
42 | 2000 to 5000 | COc1cc(C(=O)N2CC[C@]3(c4ccccn4)OCOC3C2)ccc1OCC(C)(C)F (stereo partly drawn) [Compound 23]
43 | 2000 to 5000 | Cc1cc(C(=O)N2CC[C@]3(c4ccccn4)OCOC3C2)ccc1OCC(C)(C)O (stereo partly drawn) [Compound 25]
44 | 2000 to 5000 | O=C(c1ccc(S(=O)(=O)NC2CC2)cc1)N1CCC2(c3ccccc3)CC2C1 (stereo not drawn) [Compound 26]
45 | ≤ 2000 | Cc1cc(C(=O)N2CC[C@]3(c4ncccn4)OCOC3C2)ccc1OCC(C)(C)F (stereo partly drawn) [Compound 27]
46 | ≤ 2000 | O=C(c1ccc(C2(O)CCC2)cc1)N1CCC2(c3ccccc3)CC2C1 (stereo not drawn) [Compound 28]
47 | ≤ 2000 | Cc1cc(C(=O)N2CC[C@@]3(c4nccs4)OCOC3C2)ccc1OCC(C)(C)O (stereo partly drawn) [Compound 30]
48 | ≤ 2000 | COc1cc(C(=O)N2CC[C@]3(c4ccc(F)cc4)OCOC3C2)ccc1COCCC(F)(F)F (stereo partly drawn) [Compound 32]
49 | ≤ 2000 | COc1cccnc1[C@]12CCN(C(=O)c3ccc(OCC(C)(C)F)c(C)c3)CC1OCO2 (stereo partly drawn) [Compound 34]
50 | ≤ 2000 | CC(C)(O)Cc1ccc(C(=O)N2CCC3(c4ccccc4)CC3C2)cc1F (stereo not drawn) [Compound 37]
51 | ≤ 2000 | COc1cc(C(=O)N2CC[C@]3(c4ncccc4OC)OCOC3C2)ccc1OCCOC(F)(F)F (stereo partly drawn) [Compound 41]
52 | ≤ 2000 | COc1cc(C(=O)N2CC[C@]3(c4ccccc4)OCOC3C2)ccc1OCC(C)(C)O (stereo partly drawn) [Compound 42]
53 | ≤ 2000 | Cc1cc(C(=O)N2CCC3(c4ccc(F)cc4)CC3C2)ccc1OCC(C)(C)O (stereo not drawn) [Compound 44]
54 | ≤ 2000 | COc1cc(C(=O)N2CC[C@@]3(c4ccc(F)cc4)OCOC3C2)ccc1COCCC(F)(F)F (stereo partly drawn) [Compound 48]
55 | 2000 to 5000 | O=C(c1ccc2c(c1)OCC(COC(F)(F)F)O2)N1CC[C@]2(c3ccccc3)OCOC2C1 (stereo partly drawn) [Compound 51]
56 | ≤ 2000 | COc1cc(C(=O)N2CCC3(c4ccccc4)OCC3C2)ccc1OCCOC(F)(F)F (stereo not drawn) [Compound 55]
57 | > 5000 | CC(C)(O)c1ccc(C(=O)N2CCC3(c4ccccc4)CC3C2)cc1F (stereo not drawn) [Compound 57]

— patent US10233191B2, “Fused piperidine amides as modulators of ion channels” (Vertex Pharmaceuticals Incorporated, priority 2013, dated 2019)
